Experimental findings from patent publication US20140186294A1, “PHAGOCYTIC ACTIVITY AS A MARKER OF SYNUCLEINOPATHIC DISEASE” (ELAN PHARMACEUTICALS, INC., priority 2010, published 2014) are described below.

Series [1] deals with microglia. The experiment in a line: Flow cytometry phagocytosis assay with strepavidin or biotin beads. The class given is cell-based. The settings on record: 30 minutes pretreatment, beads 90 minutes. The procedure: Phagocytosis assay: 6 μm strepavidin beads or 5.2 μm biotin beads were added to microglia for 90 minutes. Cells were moved to ice and stained with either a biotin or strepavidin labeled antibodies to identify un-ingested beads. To confirm the ability to identify intra-verses extracellular bound beads by flow cytometry microglia were treated with Cytochalasin D for 30 minutes prior to the addition of beads.
In general terms: In flow cytometry, cells or beads pass a laser one at a time.

Series [2] relates to synuclein overexpressing cells. Kind of series: Phagocytosis after INFγ overnight, synuclein overexpressing microglia. The class given is cell-based, mouse. The settings on record: beads 90 minutes. The source says: (§1) To test a more physiologic system in which altered activation of LRRK2 and elevated synuclein may occur, we tested the effect of INFγ treatment on phagocytosis in wild type and synuclein-overexpressing microglia. As described above INFγ treatment naturally raises LRRK2 levels as well as increased LRRK2 phosphorylation and activity. Using our line 3 heterozygote X heterozygote crosses (generating homozygous alpha synuclein mice) in which, by culturing each pup separately wild type and synuclein overexpressing littermate cultures are generated. Microglia isolated from the various pups were exposed to INFγ overnight and which point […] beads were added for 90 minutes and phagocytosis was assessed while we were still blinded to the genotype of each culture. […] The ability of the environment to impact these pathways may help explain the incomplete penetrance and onset of Parkinson's symptoms observed with various familial forms of PD.

The subject of series [3] is LRRK2. Kind of series: LRRK2 mRNA, protein and kinase activity in INF-γ treated microglia. The class given is cell-based. The settings on record: INF-γ treatment of microglia. The source says: FIG. 16: INF-γ treatment of microglia induced LRRK2 mRNA transcript levels and protein levels by about 2 fold.
We have tested the effect of LRRK2 kinase inhibitors on phagocytosis in cells transformed with LRRK2 G2019S. We have a number of compounds known to inhibit LRRK2 kinase activity. Some of these compounds have enantiomers that are known inhibitors of either cFMS or PLK2 inhibitors but have minimal effect on LRRK2. Pairs of enantiomers one of which is known inhibitor of LRRK2 and one of which inhibits cFMS or PLK2 without substantially effect on LRRK2 can be used to measure LRRK2-specific effects on phagocytosis.

The next series has as its system wild type microglia. The experiment in a line: Phagocytosis after INFγ overnight, wild type littermate microglia. The class given is cell-based, mouse. The settings on record: beads 90 minutes.
Source text: as §1

Series [4] relates to microglia. Kind of series: Phagocytosis of 10 micron beads by INFγ treated microglia, with or without LRRK2 inhibitors. The class given is cell-based. The settings on record: INFγ 24 hr.
Series [5] has as its system LRRK2. Kind of series: LRRK2 phosphorylation in stimulated murine microglia (PT1967 P-LRRK2 antibody). The class given is cell-based, mouse. The settings on record: primary microglia stimulated for various times. The procedure: Although neurons express LRRK2, this expression appears to be low relative to that of B-cells and macrophages. […] For example, murine microglia were stimulated with MCSF for various times or […] beads for 30 minutes. LRRK2 phosphorylation was probed with PT1967 P-LRRK2 antibody.

For another series, the system named is H4 cells. Kind of series: Bead phagocytosis in H4 cells with tetracycline inducible synuclein transfected with Rab proteins. The class given is cell-based, human. The settings on record: synuclein overexpressing H4 cells (tetracycline 48 hours), 4 μM beads 90 minutes. The procedure: FIG. 11: Rabs proteins were transfected into a stable H4 cells containing a tetracycline inducible synuclein construct. Cells were treated or untreated with tetracycline for 48 hours and then fed 4 μM beads for 90 minutes and a phagocytic index calculated.
In quantifying phagocytosis in cells overexpressing synuclein we noticed that synuclein translocates to the phagocytic cup and localized with regions of active actin rearrangement. Under resting conditions synuclein resides in the cytoplasm and following 45 and 90 minutes of bead addition synuclein translocates to sites of actin polymerization and bead contact. SNARE complexes are composed of three components, a SNAP, a syntaxin, and a VAMP protein. These three proteins come together and prime vesicles for fusion with the plasma membrane. On fusion vesicles release their contents and SNARE complexes are disassembled by two adaptor proteins, NSF and α-SNAP. Some members from these dissociated complexes recycle back to the cytoplasm via recycling endosomes and can be used to prime subsequent fusion events. All three protein members of the SNARE complex are alpha helices and on assembly form an energy favorable, very unique SDS stable complex. Although these complexes resist SDS dissociation they will dissociate following boiling. Therefore one SNARE complexes can be flowed as SDS stable complexes in boiled and unboiled lysates. We hypothesized that defective vesicle mobilization may be associated with or due to altered SNARE complex formation of SNARE complex. H4 cells transfected with synuclein were fed beads for 15, 45, or 90 minutes, samples were lysed and run on western formation. […] Alterations in SNARE complexes were also observed in microglia isolated from synuclein genomic mice (data not shown). To elucidate how synuclein alters vesicle trafficking and SNARE complex formation/function we assessed interaction of synuclein with components of the SNARE family. […] To test the possibility that molecules which facilitate vesicle movement could overcome the ability of elevated levels of synuclein to block phagocytosis, a stable H4 cell line overexpressing synuclein was transfected with various Rab proteins. We verified that the Rab proteins were overexpressed and phagocytosis was assessed in wild type and synuclein over expressing cells.

Take `C=C1[C@@H](C)[C@H]2[C@H](Cc3ccccc3)NC(=O)[C@]23[C@H](OC(C)=O)/C=C/[C@@](C)(O)C(=O)[C@@H](C)C/C=C/[C@H]3[C@@H]1O` [Cytochalasin D]: the “phagocytosis of 5 and 6 micron beads” value in the series on microglia [1] is on record as “blocked this phagocytosis”.

For “INFγ: interferon gamma, described as agonist of LRRK2”, the phagocytosis result in series [2] is given as “even further reduction in phagocytosis”. Moreover, in the series with LRRK2 [3], the “induction of LRRK2 mRNA transcript levels” value was “about 2 fold” and the “induction of LRRK2 protein levels” value is reported as “about 2 fold”. Further, the phagocytosis result in the series with wild type microglia is “enhanced phagocytosis”. In addition, the “phagocytosis of 10 micron beads” value with microglia [4] is “increased phagocytosis”.

B1: INFγ: interferon gamma, described as agonist of LRRK2 (protein, UniProt P01579 24-161, looked up)
Interferon gamma: QDPYVKEAENLKKYFNAGHSDVADNGTLFLGILKNWKEESDRKIMQSQIVSFYFKLFKNFKDDQSIQKSVETIKEDMNVKFFNSNKKKRDDFEKLTNYSVTDLNVQRKAIHELIQVMAELSPAAKTGKRKRSQMLFRG
As for B1, the “LRRK2 kinase activity (LRRK2 phosphorylation, LRRK-tide phosphorylation assay)” value with LRRK2 [3] was “apparent increase in LRRK2 kinase activity”.

B2: MCSF: stimulus that engages the actin cytoskeleton, used on murine microglia (protein, UniProt P07141 33-552, looked up)
Macrophage colony-stimulating …: KEVSEHCSHMIGNGHLKVLQQLIDSQMETSCQIAFEFVDQEQLDDPVCYLKKAFFLVQDIIDETMRFKDNTPNANATERLQELSNNLNSCFTKDYEEQNKACVRTFHETPLQLLEKIKNFFNETKNLLEKDWNIFTKNCNNSFAKCSSRDVVTKPDCNCLYPKATPSSDPASASPHQPPAPSMAPLAGLAWDDSQRTEGSSLLPSELPLRIEDPGSAKQRPPRSTCQTLESTEQPNHGDRLTEDSQPHPSAGGPVPGVEDILESSLGTNWVLEEASGEASEGFLTQEAKFSPSTPVGGSIQAETDRPRALSASPFPKSTEDQKPVDITDRPLTEVNPMRPIGQTQNNTPEKTDGTSTLREDHQEPGSPHIATPNPQRVSNSATPVAQLLLPKSHSWGIVLPLGELEGKRSTRDRRSPAELEGGSASEGAARPVARFNSIPLTDTGHVEQHEGSSDPQIPESVFHLLVPGIILVLLTVGGLLFYKWKWRSHRDPQTLDSSVGRPEDSSLTQDEDRQVELPV
In the case of B2, in the series on LRRK2 [5], the LRRK2 phosphorylation result was “can be enhanced”.

B3: Rab11b: Rab protein (Swiss Prot Q15907) overexpressed by transfection in H4 cells (protein, UniProt Q15907 2-215, looked up)
Ras-related protein Rab-11B: GTRDDEYDYLFKVVLIGDSGVGKSNLLSRFTRNEFNLESKSTIGVEFATRSIQVDGKTIKAQIWDTAGQERYRAITSAYYRGAVGALLVYDIAKHLTYENVERWLKELRDHADSNIVIMLVGNKSDLRHLRAVPTDEARAFAEKNNLSFIETSALDSTNVEEAFKNILTEIYRIVSQKQIADRAAHDESPGNNVVDISVPPTTDGQKPNKLQCC
In the case of B3, the figures for the “phagocytosis (phagocytic index)” value in the series with H4 cells and with H4 cells (listed as Rab11B) were “rescued synuclein modulation of phagocytosis” and “restored phagocytosis”, respectively.

B4: Rab3b: Rab protein (Swiss Prot P20337) overexpressed by transfection in H4 cells (protein, UniProt P20337 2-219, looked up)
Ras-related protein Rab-3B: ASVTDGKTGVKDASDQNFDYMFKLLIIGNSSVGKTSFLFRYADDTFTPAFVSTVGIDFKVKTVYRHEKRVKLQIWDTAGQERYRTITTAYYRGAMGFILMYDITNEESFNAVQDWATQIKTYSWDNAQVILVGNKCDMEEERVVPTEKGQLLAEQLGFDFFEASAKENISVRQAFERLVDAICDKMSDSLDTDPSMLGSSKNTRLSDTPPLLQQNCSC
B4: the “phagocytosis (phagocytic index)” value in the series with H4 cells is given as “rescued synuclein modulation of phagocytosis”; with H4 cells (listed as Rab3B), “restored phagocytosis”.
